Reference: US20240150293A1, “SPIROCYCLOHEXANE DERIVATIVES, PHARMACEUTICAL COMPOSITIONS CONTAINING THEM AND THEIR USES AS ANTI-APOPTOTIC INHIBITORS” (LES LABORATOIRES SERVIER, priority 2021, published 2024)

What follows are molecules tested against Mcl-1 protein (UniProtKB Q07820) (Homo sapiens (Human), UniProt Q07820) (assay: Inhibition of Mcl-1 by the fluorescence polarisation assay (Example A, Method A)). Settings: fluorescence polarization assay.
Assay type: binding
Description: The relative binding potency of each compound was determined via Fluorescence Polarisation (FP). The method utilised a Fluorescein labelled ligand (Fluorescein-βAla-Ahx-A-REIGAQLRRMADDLNAQY-OH; MW 2,765) which binds to the Mcl-1 protein (such that Mcl-1 corresponds to the UniProtKB® primary accession number: Q07820) leading to an increased anisotropy measured in milli-polarisation (mP) units using a reader. The addition of a compound which binds competitively to the same site as the ligand will result in a greater proportion of unbound ligand in the system indicated by a decrease in mP units.
An 11 point serial dilution of each compound was prepared in DMSO and 2 μl transferred into flat bottomed, low binding, 384-well plate (final DMSO concentration 5%). 38 μl of buffer containing the Fluorescein labelled ligand (final concentration 1 nM) and Mcl-1 protein (final concentration 5 nM) was then added. Buffer components were 10 mM 4-(2-hydroxyethyl)-1-piperazineethanesulfonic acid [HEPES], 150 mM NaCl, pH 7.4 with the addition of 0.05% Tween 20.
Assay plates were incubated for 2 hours at room temperature before FP was measured on a […] Synergy Neo reader ([…], Cut off 510 nm) and mP units calculated. The binding of increasing doses of test compound was expressed as a percentage reduction in mP compared to a window established between ‘5% DMSO only’ and ‘100% inhibition’ controls. 11-point dose response curves were plotted with XL-Fit software using a 4-Parameter Logistic Model (Sigmoidal Dose-Response Model) and the inhibitory concentrations that gave a 50% reduction in mP (IC50) were determined. The Ki values were determined from the IC50 values according to Cer et al, Nucleic Acids Res, 2009, 37 (WebServer issue): W441-W445. Inhibition constants (Ki) are determined from complete binding inhibition curves (cKi) or from estimated from incomplete binding inhibition curves (eKi) in most cases due to low activity.

Sequence of Mcl-1 protein (Q07820 whole entry): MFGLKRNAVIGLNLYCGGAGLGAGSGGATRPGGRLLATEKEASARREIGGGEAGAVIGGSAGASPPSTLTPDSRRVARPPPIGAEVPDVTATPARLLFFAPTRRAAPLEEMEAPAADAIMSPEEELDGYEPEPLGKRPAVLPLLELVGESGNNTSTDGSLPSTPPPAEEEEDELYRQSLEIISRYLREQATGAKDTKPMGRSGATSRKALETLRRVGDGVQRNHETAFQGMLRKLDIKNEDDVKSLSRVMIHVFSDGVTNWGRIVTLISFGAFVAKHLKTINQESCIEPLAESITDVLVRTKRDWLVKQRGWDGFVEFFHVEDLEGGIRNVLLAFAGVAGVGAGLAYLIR

| Ki | SMILES |
| --- | --- |
| 11.8 µM | O=C(O)[C@]1(Nc2cccc(Br)c2)CC[C@]2(CC1)c1ccccc1CC2CCc1ccccn1 (mixture of isomers) [Example 176, (1s,4s)-4-(3-bromoanilino)-2′-[2-(pyridin-2-yl)ethyl]-2′,3′-dihydrospiro[cyclohexane-1,1′-indene]-4-carboxylic acid] |
| 1.53 µM | O=C(O)C1(Nc2cccc(Br)c2)CCC2(CC1)c1ccccc1CC2CCc1ccccc1 (racemic) [Example 201, 4-(3-bromoanilino)-2′-(2-phenylethyl)-2′,3′-dihydrospiro[cyclohexane-1,1′-indene]-4-carboxylic acid] |
| 4.66 µM | CC[C@H]1c2ccccc2[C@]2(CC[C@@](Nc3cccc(Cl)c3)(C(=O)O)CC2)[C@H]1C (racemic) [Example 207, (1r,2′RS,3′SR,4r)-4-(3-chloroanilino)-3′-ethyl-2′-methyl-2′,3′-dihydrospiro[cyclohexane-1,1′-indene]-4-carboxylic acid] |
| 4.16 µM | COc1cccc(Cl)c1C1Cc2ccccc2[C@]12CC[C@@](Nc1cccc(Cl)c1)(C(=O)O)CC2 (mixture of isomers) [Example 283, (1r,4r)-4-(3-chloroanilino)-2′-(2-chloro-6-methoxyphenyl)-2′,3′-dihydrospiro[cyclohexane-1,1′-indene]-4-carboxylic acid] |
| 5.8 µM | COc1cccc(C)c1C1Cc2ccccc2[C@]12CC[C@@](Nc1cccc(Cl)c1)(C(=O)O)CC2 (mixture of isomers) [Example 286, (1r,4r)-4-(3-chloroanilino)-2′-(2-methoxy-6-methylphenyl)-2′,3′-dihydrospiro[cyclohexane-1,1′-indene]-4-carboxylic acid] |
| 0.318 µM | Cc1n[nH]c2cccc(OCCCC3Cc4ccccc4[C@]34CC[C@@](Nc3cccc(Cl)c3)(C(=O)O)CC4)c12 (mixture of isomers) [Example 453, (1r,4r)-4-(3-chloroanilino)-2′-{3-[(3-methyl-1H-indazol-4-yl)oxy]propyl}-2′,3′-dihydrospiro[cyclohexane-1,1′-indene]-4-carboxylic acid] |
| 0.325 µM | CC(C)c1cncnc1OCCCC1Cc2ccccc2[C@]12CC[C@@](Nc1cccc(Cl)c1)(C(=O)O)CC2 (mixture of isomers) [Example 461, (1r,4r)-4-(3-chloroanilino)-2′-(3-{[5-(propan-2-yl)pyrimidin-4-yl]oxy}propyl)-2′,3′-dihydrospiro[cyclohexane-1,1′-indene]-4-carboxylic acid] |
| 0.745 µM | O=C(O)[C@]1(Nc2cccc(Cl)c2)CC[C@@]2(CC1)c1ccccc1CC2[C@H]1C[C@@H]1COc1ccccc1 (relative stereo) [Example 109, (1r,4r)-4-(3-chloroanilino)-2′-[(1R*,2S*)-2-(phenoxymethyl)cyclopropyl]-2′,3′-dihydrospiro[cyclohexane-1,1′-indene]-4-carboxylic acid] |
| 8.45 µM | O=C(O)[C@]1(Nc2cccc(Cl)c2)CC[C@@]2(CC1)c1ccccc1CC2[C@H]1C[C@@H]1COc1ccccc1 (relative stereo) [Example 110, (1r,4r)-4-(3-chloroanilino)-2′-[(1R*,2S*)-2-(phenoxymethyl)cyclopropyl]-2′,3′-dihydrospiro[cyclohexane-1,1′-indene]-4-carboxylic acid] |
| 9.68 µM | O=C(O)[C@]1(Nc2cccc(Cl)c2)CC[C@@]2(CC1)c1ccccc1CC2[C@H]1C[C@@H]1COc1ccccc1 (relative stereo) [Example 111, (1r,4r)-4-(3-chloroanilino)-2′-[(1R*,2S*)-2-(phenoxymethyl)cyclopropyl]-2′,3′-dihydrospiro[cyclohexane-1,1′-indene]-4-carboxylic acid] |
| 5.2 µM | O=C(O)C1(Nc2cccc(Br)c2)CCC2(CC1)C(=O)N1CCCc3cc(Br)cc2c31 (single isomer, unassigned) [Example 14, 8′-bromo-4-(3-bromoanilino)-2′-oxo-5′,6′-dihydro-2′H,4′H-spiro[cyclohexane-1,1′-pyrrolo[3,2,1-ij]quinoline]-4-carboxylic acid] |
